According to ChEMBL document CHEMBL1135107, “Synthesis and evaluation of new antimalarial analogues of quinoline alkaloids derived from Cinchona ledgeriana Moens ex Trimen” (Bioorg Med Chem Lett, 2002):
pIC50: −log10 of the molar value.

Columns and labels:
Plasmodium falciparum [1] = test: In vitro antimalarial activity against Plasmodium falciparum W2 in human erythrocytes by [3H]hypoxanthine uptake; type: functional, organism-based
Plasmodium falciparum [2] = test: In vitro inhibition of parasite development of Plasmodium falciparum W2 in human erythrocytes; type: functional, organism-based

C=C[C@H]1C[N@+]2(Cc3cc(C(C)(C)C)c(OC)c(C(C)(C)C)c3)CC[C@H]1C[C@@H]2[C@@H](OCc1ccccc1)c1ccnc2ccc(OC)cc12
pIC50 (Plasmodium falciparum [1]; Plasmodium falciparum): 6.39 | pIC50 (Plasmodium falciparum [2]; Plasmodium falciparum): 7.00

C=C[C@H]1C[N@+]2(Cc3cc(C(C)(C)C)c(OC)c(C(C)(C)C)c3)CC[C@H]1C[C@H]2[C@H](O)c1ccnc2ccc(OC)cc12
pIC50 (Plasmodium falciparum [1]; Plasmodium falciparum): 6.42 | pIC50 (Plasmodium falciparum [2]; Plasmodium falciparum): 7.00

C=C[C@H]1C[N@+]2(Cc3cc(C(C)(C)C)c(OC)c(C(C)(C)C)c3)CC[C@H]1C[C@H]2[C@H](O)c1ccnc2ccccc12
pIC50 (Plasmodium falciparum [1]; Plasmodium falciparum): 6.29 | pIC50 (Plasmodium falciparum [2]; Plasmodium falciparum): 6.80

C=C[C@H]1C[N@+]2(Cc3cc(C(C)(C)C)c(OC)c(C(C)(C)C)c3)CC[C@H]1C[C@H]2[C@H](OCc1ccccc1)c1ccnc2ccccc12
pIC50 (Plasmodium falciparum [1]; Plasmodium falciparum): 6.28 | pIC50 (Plasmodium falciparum [2]; Plasmodium falciparum): 7.20

C=C[C@H]1C[N@+]2(Cc3cc(C(C)(C)C)c(OC)c(C(C)(C)C)c3)CC[C@H]1C[C@@H]2[C@@H](O)c1ccnc2ccc(OC)cc12
pIC50 (Plasmodium falciparum [1]; Plasmodium falciparum): 6.00 | pIC50 (Plasmodium falciparum [2]; Plasmodium falciparum): 6.29

C=C[C@H]1C[N@+]2(Cc3cc(C(C)(C)C)c(OC)c(C(C)(C)C)c3)CC[C@H]1C[C@H]2[C@H](OCc1ccccc1)c1ccnc2ccc(OC)cc12
pIC50 (Plasmodium falciparum [1]; Plasmodium falciparum): 6.21 | pIC50 (Plasmodium falciparum [2]; Plasmodium falciparum): 6.82

C=CCO[C@@H](c1ccnc2ccc(OC)cc12)[C@H]1C[C@@H]2CC[N@@+]1(Cc1cc(C(C)(C)C)c(OC)c(C(C)(C)C)c1)C[C@@H]2C=C
pIC50 (Plasmodium falciparum [1]; Plasmodium falciparum): 5.92 | pIC50 (Plasmodium falciparum [2]; Plasmodium falciparum): 6.64

C=C[C@H]1C[N@+]2(Cc3cc(C(C)(C)C)c(OC)c(C(C)(C)C)c3)CC[C@H]1C[C@@H]2[C@@H](OCc1ccccc1)c1ccnc2ccccc12
pIC50 (Plasmodium falciparum [1]; Plasmodium falciparum): 5.96 | pIC50 (Plasmodium falciparum [2]; Plasmodium falciparum): 6.92

C=CCO[C@H](c1ccnc2ccc(OC)cc12)[C@@H]1C[C@@H]2CC[N@@+]1(Cc1cc(C(C)(C)C)c(OC)c(C(C)(C)C)c1)C[C@@H]2C=C
pIC50 (Plasmodium falciparum [1]; Plasmodium falciparum): 6.00 | pIC50 (Plasmodium falciparum [2]; Plasmodium falciparum): 6.39

C=CCO[C@H](c1ccnc2ccccc12)[C@@H]1C[C@@H]2CC[N@@+]1(Cc1cc(C(C)(C)C)c(OC)c(C(C)(C)C)c1)C[C@@H]2C=C
pIC50 (Plasmodium falciparum [1]; Plasmodium falciparum): 5.96 | pIC50 (Plasmodium falciparum [2]; Plasmodium falciparum): 6.24

C=C[C@H]1C[N@+]2(Cc3cc(C(C)(C)C)c(OC)c(C(C)(C)C)c3)CC[C@H]1C[C@@H]2[C@@H](O)c1ccnc2ccccc12 (stereo in doubt; form 1)
pIC50 (Plasmodium falciparum [1]): 6.10 | pIC50 (Plasmodium falciparum [2]): 6.28

C=C[C@H]1C[N@+]2(Cc3cc(C(C)(C)C)c(OC)c(C(C)(C)C)c3)CC[C@H]1C[C@@H]2[C@@H](O)c1ccnc2ccccc12 (stereo in doubt; form 2)
pIC50 (Plasmodium falciparum [1]): 6.44 | pIC50 (Plasmodium falciparum [2]): 6.80

C=C[C@H]1CN2CC[C@H]1C[C@H]2[C@H](O)c1ccnc2ccccc12 [CINCHONIDINE]
pIC50 (Plasmodium falciparum [1]; Plasmodium falciparum): 6.42 | pIC50 (Plasmodium falciparum [2]; Plasmodium falciparum): 6.54

C=C[C@H]1CN2CC[C@H]1C[C@@H]2[C@@H](O)c1ccnc2ccccc12 [CINCHONINE]
pIC50 (Plasmodium falciparum [1]; Plasmodium falciparum): 6.66 | pIC50 (Plasmodium falciparum [2]; Plasmodium falciparum): 7.29

C=C[C@H]1CN2CC[C@H]1C[C@@H]2[C@@H](O)c1ccnc2ccc(OC)cc12 [QUINIDINE]
pIC50 (Plasmodium falciparum [1]; Plasmodium falciparum): 6.80 | pIC50 (Plasmodium falciparum [2]; Plasmodium falciparum): 8.40

C=C[C@H]1CN2CC[C@H]1C[C@H]2[C@H](O)c1ccnc2ccc(OC)cc12 [QUININE]
pIC50 (Plasmodium falciparum [1]; Plasmodium falciparum): 6.43 | pIC50 (Plasmodium falciparum [2]; Plasmodium falciparum): 6.92
